Structures can show the parent of a compound that is named as a salt.

Chain of human SPR (P35270 whole entry): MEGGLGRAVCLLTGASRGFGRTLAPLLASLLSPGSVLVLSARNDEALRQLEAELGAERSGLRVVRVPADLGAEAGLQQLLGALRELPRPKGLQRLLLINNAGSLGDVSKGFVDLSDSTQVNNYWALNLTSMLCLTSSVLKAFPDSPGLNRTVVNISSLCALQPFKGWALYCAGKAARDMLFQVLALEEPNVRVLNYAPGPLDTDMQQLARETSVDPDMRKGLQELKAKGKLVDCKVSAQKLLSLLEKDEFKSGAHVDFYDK

The assay has as its target human SPR (Homo sapiens (Human), UniProt P35270). Put plainly: Evaluation Example 2: Measurement of human SPR inhibitory activity (seven concentrations, sepiapterin absorbance at 420 nm). Conditions: Evaluation Example 2, seven concentrations 0.14 nM to 100 nM, 240 minutes at room temperature, read-out: IC50. In kind it is biochemical. The gist of the method:
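His-tagged full-length human SPR (1-261) was expressed in E. coli and the tag removed. Enzyme at 150 ng/mL in 100 mM Tris-HCl pH 7.5/0.01% BSA was mixed with compound (0.14–100 nM, seven points), 120 μM sepiapterin and 160 μM NADPH, both as added-solution concentrations. After 240 min at room temperature, remaining sepiapterin was read at 420 nm to give percent inhibition.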
`C/C(=C\c1cnn2c(O)c(C(=O)NC3CC3)c(=O)n(CC(C)C)c12)C(=O)N(C)CC#N` [Synthesis Example 258, (E)-3-(3-((Cyanomethyl)(methyl)amino)-2-methyl-3-oxoprop-1-en-1-yl)-N-cyclopropyl-7-hydroxy-4-isobutyl-5-oxo-4,5-dihydropyrazolo[1,5-a]pyrimidine-6-carboxamide]: the IC50 amounted to 740 pM.

On to `CC(C)(C)Cn1c(=O)c(C(=O)NC2CC2)c(O)n2nc(N)c(Cl)c12` [compound 447, 2-Amino-3-chloro-N-cyclopropyl-7-hydroxy-4-neopentyl-5-oxo-4,5-dihydropyrazolo[1,5-a]pyrimidine-6-carboxamide hydrochloride], for which the IC50 is 2160 pM.

`CC(C)Cn1c(=O)c(C(=O)NC2CC2)c(O)n2ncc(/C=C/C(=O)N3[C@H](C)CC[C@H]3C)c12` [compound 590, N-Cyclopropyl-3-((E)-3-((2R,5R)-2,5-dimethylpyrrolidin-1-yl)-3-oxoprop-1-en-1-yl)-7-hydroxy-4-isobutyl-5-oxo-4,5-dihydropyrazolo[1,5-a]pyrimidine-6-carboxamide]: the IC50 is 1090 pM.

Consider `CC(C)Cn1c(=O)c(C(=O)NC2CC2)c(O)n2ncc(/C=C/C(=O)N3C4CCC3COC4)c12` [compound 533, (E)-3-(3-(3-Oxa-8-azabicyclo[3.2.1]octan-8-yl)-3-oxoprop-1-en-1-yl)-N-cyclopropyl-7-hydroxy-4-isobutyl-5-oxo-4,5-dihydropyrazolo[1,5-a]pyrimidine-6-carboxamide], for which the IC50 was found to be 640 pM.

For the compound `CC(C)Cn1c(=O)c(C(=O)NC2CC2)c(O)n2nc(N)c(/C=C/C(=O)N3CCOCC3)c12` [Synthesis Example 416, (E)-2-Amino-N-cyclopropyl-7-hydroxy-4-isobutyl-3-(3-morpholino-3-oxoprop-1-en-1-yl)-5-oxo-4,5-dihydropyrazolo[1,5-a]pyrimidine-6-carboxamide], the IC50 was found to be 590 pM.

For the compound `O=C(NC1CC1)c1c(O)n2ncc(/C=C/C(=O)N3CCOCC3)c2n(CC2CC2)c1=O` [Synthesis Example 387, (E)-N-Cyclopropyl-4-(cyclopropylmethyl)-7-hydroxy-3-(3-morpholino-3-oxoprop-1-en-1-yl)-5-oxo-4,5-dihydropyrazolo[1,5-a]pyrimidine-6-carboxamide], the IC50 was 860 pM.

On to `O=C(NC1CC1)c1c(O)n2nc(Nc3cnccn3)cc2n(CC2CCOCC2)c1=O` [Synthesis Example 350, N-Cyclopropyl-7-hydroxy-5-oxo-2-(pyrazin-2-ylamino)-4-((tetrahydro-2H-pyran-4-yl)methyl)-4,5-dihydropyrazolo[1,5-a]pyrimidine-6-carboxamide], for which the IC50 came to 750 pM.

For the compound `C[C@@H]1COCCN1C(=O)/C=C/c1cnn2c(O)c(C(=O)NC3CC3)c(=O)n(CC3(C)CC3)c12` [Synthesis Example 370, (R,E)-N-Cyclopropyl-7-hydroxy-4-((1-methylcyclopropyl)methyl)-3-(3-(3-methylmorpholino)-3-oxoprop-1-en-1-yl)-5-oxo-4,5-dihydropyrazolo[1,5-a]pyrimidine-6-carboxamide], the IC50 was 540 pM.

Turning to `CC(C)Cn1c(=O)c(C(=O)NC2CC2)c(O)n2ncc(/C=C/C(=O)N3CCOC[C@@H]3CO)c12` [compound 525, (S,E)-N-Cyclopropyl-7-hydroxy-3-(3-(3-(hydroxymethyl)morpholino)-3-oxoprop-1-en-1-yl)-4-isobutyl-5-oxo-4,5-dihydropyrazolo[1,5-a]pyrimidine-6-carboxamide], the IC50 was 650 pM.

As for `CC(C)Cn1c(=O)c(C(=O)NC2CC2)c(O)n2ncc(/C=C/C(=O)N3CCC[C@H]3c3cccnc3)c12` [compound 603, (S,E)-N-Cyclopropyl-7-hydroxy-4-isobutyl-5-oxo-3-(3-oxo-3-(2-(pyridin-3-yl)pyrrolidin-1-yl)prop-1-en-1-yl)-4,5-dihydropyrazolo[1,5-a]pyrimidine-6-carboxamide], the IC50 worked out at 1100 pM.

With `CC(C)(C)Cn1c(=O)c(C(=O)NC2CC2)c(O)n2nc3[nH]c(=O)ccc3c12` [Synthesis Example 394, N-Cyclopropyl-4-hydroxy-1-neopentyl-2,8-dioxo-1,2,7,8-tetrahydropyrido[2′,3′:3,4]pyrazolo[1,5-a]pyrimidine-3-carboxamide], the IC50 is 390 pM.

With `CNc1nn2c(O)c(C(=O)NC3CC3)c(=O)n(CC(C)C)c2c1/C=C/C(=O)N1CC2CCC(C1)O2` [Synthesis Example 431, (E)-3-(3-(8-Oxa-3-azabicyclo[3.2.1]octan-3-yl)-3-oxoprop-1-en-1-yl)-N-cyclopropyl-7-hydroxy-4-isobutyl-2-(methylamino)-5-oxo-4,5-dihydropyrazolo[1,5-a]pyrimidine-6-carboxamide], the concentration for half-maximal inhibition (IC50) stood at 810 pM.

In the case of `Cc1nn2c(O)c(C(=O)NC3CC3)c(=O)n(CC(C)C)c2c1/C=C/C(=O)N1C[C@@H](F)[C@H](F)C1` (racemic) [Synthesis Example 649, N-Cyclopropyl-3-((E)-3-(trans-3,4-difluoropyrrolidin-1-yl)-3-oxoprop-1-en-1-yl)-7-hydroxy-4-isobutyl-2-methyl-5-oxo-4,5-dihydropyrazolo[1,5-a]pyrimidine-6-carboxamide], the IC50 amounted to 730 pM.

For `CC(C)(C)Cn1c(=O)c(C(=O)NC2CC2)c(O)n2nc(-c3cccnc3N)c(Br)c12` [compound 448, 2-(2-Aminopyridin-3-yl)-3-bromo-N-cyclopropyl-7-hydroxy-4-neopentyl-5-oxo-4,5-dihydropyrazolo[1,5-a]pyrimidine-6-carboxamide], the IC50 worked out at 8220 pM.

As to `CC(C)Cn1c(=O)c(C(=O)NC2CC2)c(O)n2ncc(/C=C/C(=O)N3CCC(C(N)=O)CC3)c12` [compound 477, (E)-3-(3-(4-Carbamoylpiperidin-1-yl)-3-oxoprop-1-en-1-yl)-N-cyclopropyl-7-hydroxy-4-isobutyl-5-oxo-4,5-dihydropyrazolo[1,5-a]pyrimidine-6-carboxamide], the IC50 was determined as 640 pM.

In the case of `CC(C)(C)Cn1c(=O)c(C(=O)NC2CC2)c(O)n2nc(Nc3cnc(C(=O)NCC(C)(C)O)cn3)cc12` [Synthesis Example 354, N-Cyclopropyl-7-hydroxy-2-((5-((2-hydroxy-2-methylpropyl)carbamoyl)pyrazin 2-yl)amino)-4-neopentyl-5-oxo-4,5-dihydropyrazolo[1,5-a]pyrimidine-6-carboxamide], the IC50 is 860 pM.

In the case of `Cc1nn2c(O)c(C(=O)NC3CC3)c(=O)n(CC(C)C)c2c1/C=C/C(=O)N1CCO[C@@H](C)C1` [Synthesis Example 680, (S,E)-N-Cyclopropyl-7-hydroxy-4-isobutyl-2-methyl-3-(3-(2-methylmorpholino)-3-oxoprop-1-en-1-yl)-5-oxo-4,5-dihydropyrazolo[1,5-a]pyrimidine-6-carboxamide], the IC50 came to 810 pM.

As for `CC(C)(C)Cn1c(=O)c(C(=O)NC2CC2)c(O)n2nc(Nc3cncc(F)n3)cc12` [Synthesis Example 356, N-Cyclopropyl-2-((6-fluoropyrazin-2-yl)amino)-7-hydroxy-4-neopentyl-5-oxo-4,5-dihydropyrazolo[1,5-a]pyrimidine-6-carboxamide], the IC50 was determined as 1160 pM.

As for `Cc1nn2c(O)c(C(=O)NC3CC3)c(=O)n(CC(C)C)c2c1/C=C/C(=O)N1[C@H](C)COC[C@H]1C` [compound 576, N-Cyclopropyl-3-((E)-3-((3R,5R)-3,5-dimethylmorpholino)-3-oxoprop-1-en-1-yl)-7-hydroxy-4-isobutyl-2-methyl-5-oxo-4,5-dihydropyrazolo[1,5-a]pyrimidine-6-carboxamide], the IC50 is 860 pM.

For the compound `CC(C)Cn1c(=O)c(C(=O)NC2CC2)c(O)n2ncc(/C=C/C(=O)N3CCC[C@@H]3C(C)C)c12` [compound 599, (R,E)-N-Cyclopropyl-7-hydroxy-4-isobutyl-3-(3-(2-isopropylpyrrolidin-1-yl)-3-oxoprop-1-en-1-yl)-5-oxo-4,5-dihydropyrazolo[1,5-a]pyrimidine-6-carboxamide], the IC50 was found to be 1270 pM.

Regarding `Cc1nn2c(O)c(C(=O)NC3CC3)c(=O)n(CC(C)C)c2c1/C=C/C(=O)N1CCC[C@H]1c1ccccc1` [Synthesis Example 674, (S,E)-N-Cyclopropyl-7-hydroxy-4-isobutyl-2-methyl-5-oxo-3-(3-oxo-3-(2-phenylpyrrolidin-1-yl)prop-1-en-1-yl)-4,5-dihydropyrazolo[1,5-a]pyrimidine-6-carboxamide], the IC50 was determined as 1360 pM.

For `CC(C)(C)Cn1c(=O)c(C(=O)NC2CC2)c(O)n2nc(N)c(/C=C/C3CCOCC3)c12` [Synthesis Example 433, (E)-2-Amino-N-cyclopropyl-7-hydroxy-4-neopentyl-5-oxo-3-(2-(tetrahydro-2H-pyran-4-yl)vinyl)-4,5-dihydropyrazolo[1,5-a]pyrimidine-6-carboxamide hydrochloride], the IC50 stood at 970 pM.

On to `CC(C)Cn1c(=O)c(C(=O)NC2CC2)c(O)n2ncc(/C=C/C(=O)N3CCC[C@@H]3C)c12` [compound 458, (S,E)-N-Cyclopropyl-7-hydroxy-4-isobutyl-3-(3-(2-methylpyrrolidin-1-yl)-3-oxoprop-1-en-1-yl)-5-oxo-4,5-dihydropyrazolo[1,5-a]pyrimidine-6-carboxamide], for which the IC50 was found to be 790 pM.

For `CC(C)Cn1c(=O)c(C(=O)NC2CC2)c(O)n2ncc(/C=C/C(=O)N3CCC4CC43)c12` (racemic) [compound 588, (E)-3-(3-(2-Azabicyclo[3.1.0]hexan-2-yl)-3-oxoprop-1-en-1-yl)-N-cyclopropyl-7-hydroxy-4-isobutyl-5-oxo-4,5-dihydropyrazolo[1,5-a]pyrimidine-6-carboxamide (racemate)], the concentration for half-maximal inhibition (IC50) worked out at 1590 pM.

`CC(C)Cn1c(=O)c(C(=O)NC2CC2)c(O)n2ncc(/C=C/C(=O)N3CCOCC3CC(F)(F)F)c12` (single isomer, unassigned) [compound 550, (E)-N-Cyclopropyl-7-hydroxy-4-isobutyl-5-oxo-3-(3-oxo-3-(3-(2,2,2-trifluoroethyl)morpholino)prop-1-en-1-yl)-4,5-dihydropyrazolo[1,5-a]pyrimidine-6-carboxamide (Isomer]: the IC50 was found to be 790 pM.

One may read the IC50 as the midpoint of a concentration-inhibition curve.

(Values after US20240092784A1, “CONDENSED HETEROCYCLIC COMPOUND” (NISSAN CHEMICAL CORPORATION, priority 2020, published 2024).)
